Test results from PubChem BioAssay AID328 (DTP/NCI, 2004).
“And” between values parts separate entries of the source, which are not always exact repeats. Equal entries are not always repeated. Toxic doses and inconclusive results are not listed.

Test system: BDF1 mice, P388 leukemia ip, median survival T/C
Test: NCI In Vivo Anticancer Drug Screen. Data for tumor model P388 Leukemia (intraperitoneal) in B6D2F1 (BDF1) mice
Conditions: endpoint: median survival time, higher = longer survival
Procedure, shortened: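 Transplantable tumour in mice; compound vs vehicle dosing; survival scored; ratio of treated to control reported.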

[1] = dose: 100.0 mg/kg/injection, schedule: Q01DX009 (ip), vehicle: saline with Tween-80
[2] = dose: 100.0 mg/kg/injection, schedule: Q04DX003 (ip), vehicle: saline with Tween-80
[3] = dose: 200.0 mg/kg/injection, schedule: Q01DX009 (ip), vehicle: saline with Tween-80
[4] = dose: 200.0 mg/kg/injection, schedule: Q04DX003 (ip), vehicle: saline with Tween-80
[5] = dose: 400.0 mg/kg/injection, schedule: Q01DX009 (ip), vehicle: saline with Tween-80
[6] = dose: 400.0 mg/kg/injection, schedule: Q04DX003 (ip), vehicle: saline with Tween-80
[7] = dose: 50.0 mg/kg/injection, schedule: Q01DX009 (ip), vehicle: saline with Tween-80
[8] = dose: 100.0 mg/kg/injection, schedule: Q01DX009 (ip), vehicle: Klucel (hydroxypropylcellulose) (HPC)
[9] = dose: 100.0 mg/kg/injection, schedule: Q04DX003 (ip), vehicle: Klucel (hydroxypropylcellulose) (HPC)
[10] = dose: 200.0 mg/kg/injection, schedule: Q01DX009 (ip), vehicle: Klucel (hydroxypropylcellulose) (HPC)
[11] = dose: 200.0 mg/kg/injection, schedule: Q04DX003 (ip), vehicle: Klucel (hydroxypropylcellulose) (HPC)
[12] = dose: 400.0 mg/kg/injection, schedule: Q01DX009 (ip), vehicle: Klucel (hydroxypropylcellulose) (HPC)
[13] = dose: 400.0 mg/kg/injection, schedule: Q04DX003 (ip), vehicle: Klucel (hydroxypropylcellulose) (HPC)

Cc1cccc(OS(=O)(=O)c2ccccc2[N+](=O)[O-])c1
T/C (dose: 100.0 mg/kg/injection, schedule: Q01DX001 (ip), vehicle: saline sonified): 100 % of control | T/C (dose: 200.0 mg/kg/injection, schedule: Q01DX001 (ip), vehicle: saline sonified): 110 % of control | T/C (dose: 400.0 mg/kg/injection, schedule: Q01DX001 (ip), vehicle: saline sonified): 100 % of control

COc1ccc(-c2c(C#N)cnc(C)c2C)c(O)c1OC
T/C (dose: 0.2 mg/kg/injection, schedule: Q01DX009 (ip), vehicle: Klucel (hydroxypropylcellulose) (HPC)): 95 % of control

COc1cc(NCCCC(C)N)c2ncccc2c1OC (stereo not drawn)
T/C (dose: 6.25 mg/kg/injection, schedule: Q01DX009 (ip), vehicle: saline): 101 % of control | T/C (dose: 12.5 mg/kg/injection, schedule: Q01DX009 (ip), vehicle: saline): 109 % of control | T/C (dose: 25.0 mg/kg/injection, schedule: Q01DX009 (ip), vehicle: saline): 116 % of control

CC(=O)Nc1ccn(CC(=O)c2ccco2)c(=O)n1
T/C [1]: 104 % of control | T/C [2]: 105 % of control | T/C [3]: 95 % of control | T/C [4]: 105 % of control | T/C [5]: 90 % of control | T/C [6]: 100 % of control

CC(C)S(=O)(=O)/C(Cl)=C(/Cl)C(Cl)=C(Cl)Cl
T/C (dose: 13.0 mg/kg/injection, schedule: Q01DX009 (ip), vehicle: Klucel (hydroxypropylcellulose) (HPC)): 100 % of control | T/C (dose: 20.0 mg/kg/injection, schedule: Q01DX009 (ip), vehicle: Klucel (hydroxypropylcellulose) (HPC)): 100 % of control | T/C (dose: 30.0 mg/kg/injection, schedule: Q01DX009 (ip), vehicle: Klucel (hydroxypropylcellulose) (HPC)): 95 % of control

Cc1ccc(-n2c(O)c(C=N)c(=O)n(-c3ccc(C)cc3)c2=O)cc1
T/C [1]: 104 % of control | T/C [3]: 104 % of control | T/C [5]: 95 % of control

CNc1ccc(OC)cc1
T/C (dose: 100.0 mg/kg/injection, schedule: Q01DX009 (ip), vehicle: other): 100 % of control | T/C (dose: 200.0 mg/kg/injection, schedule: Q01DX009 (ip), vehicle: other): 104 % of control | T/C (dose: 400.0 mg/kg/injection, schedule: Q01DX009 (ip), vehicle: other): 104 % of control

CC1C/C(=C\NC(N)=O)C(=O)O1 (stereo not drawn)
T/C (dose: 100.0 mg/kg/injection, schedule: Q04DX003 (ip), vehicle: water): 103 % of control | T/C (dose: 200.0 mg/kg/injection, schedule: Q04DX003 (ip), vehicle: water): 102 % of control | T/C (dose: 400.0 mg/kg/injection, schedule: Q04DX003 (ip), vehicle: water): 103 % of control

Nc1nc(=S)c2[nH]c(N=Nc3ccc(S(N)(=O)=O)cc3)nc2[nH]1
T/C (dose: 12.5 mg/kg/injection, schedule: Q04DX003 (ip), vehicle: Klucel (hydroxypropylcellulose) (HPC)): 166 % of control | T/C (dose: 25.0 mg/kg/injection, schedule: Q04DX003 (ip), vehicle: Klucel (hydroxypropylcellulose) (HPC)): 156 % of control

O=[N+]([O-])CC(O)C(O)C(O)C(O)CO (stereo not drawn)
T/C (dose: 100.0 mg/kg/injection, schedule: Q01DX009 (ip), vehicle: saline): 95 % of control | T/C (dose: 100.0 mg/kg/injection, schedule: Q04DX003 (ip), vehicle: saline): 104 % of control | T/C (dose: 200.0 mg/kg/injection, schedule: Q01DX009 (ip), vehicle: saline): 100 % of control | T/C (dose: 200.0 mg/kg/injection, schedule: Q04DX003 (ip), vehicle: saline): 100 % of control | T/C (dose: 400.0 mg/kg/injection, schedule: Q01DX009 (ip), vehicle: saline): 100 % of control | T/C (dose: 400.0 mg/kg/injection, schedule: Q04DX003 (ip), vehicle: saline): 104 % of control

C=CCc1ccccc1OC
T/C [7]: 118 % of control | T/C [1]: 104 % of control

COc1cc(NC(=O)CC(C)=O)cc2c(C)cc(=O)[nH]c12
T/C (dose: 75.0 mg/kg/injection, schedule: Q04DX003 (ip), vehicle: Klucel (hydroxypropylcellulose) (HPC)): 91 % of control | T/C (dose: 150.0 mg/kg/injection, schedule: Q04DX003 (ip), vehicle: Klucel (hydroxypropylcellulose) (HPC)): 100 % of control | T/C (dose: 300.0 mg/kg/injection, schedule: Q04DX003 (ip), vehicle: Klucel (hydroxypropylcellulose) (HPC)): 104 % of control

CCOc1ccc(NC(=O)C23CC4CC(CC(C4)C2)C3)cc1
T/C (dose: 12.5 mg/kg/injection, schedule: Q01DX009 (ip), vehicle: saline with Tween-80): 100 % of control | T/C (dose: 25.0 mg/kg/injection, schedule: Q01DX009 (ip), vehicle: saline with Tween-80): 100 % of control | T/C [7]: 100 % of control

COC(=O)CCN(c1ccccc1)S(=O)(=O)c1ccc(C)cc1
T/C [8]: 104 % of control | T/C [9]: 100 % of control | T/C [10]: 104 % of control | T/C [11]: 100 % of control | T/C [12]: 95 % of control | T/C [13]: 100 % of control

COc1cc(C#N)ccc1O
T/C (dose: 100.0 mg/kg/injection, schedule: Q01DX009 (ip), vehicle: gum acacia): 100 % of control | T/C (dose: 100.0 mg/kg/injection, schedule: Q04DX003 (ip), vehicle: gum acacia): 92 % of control | T/C (dose: 200.0 mg/kg/injection, schedule: Q01DX009 (ip), vehicle: gum acacia): 87 % of control | T/C (dose: 200.0 mg/kg/injection, schedule: Q04DX003 (ip), vehicle: gum acacia): 88 % of control

Cc1ccc(NC(=S)N2CCC(CCCC3CCN(C(=S)Nc4ccc(C)c(C)c4)CC3)CC2)cc1C
T/C [8]: 100 % of control | T/C [9]: 95 % of control | T/C [10]: 90 % of control | T/C [11]: 95 % of control | T/C [12]: 90 % of control | T/C [13]: 100 % of control

CCOC(=O)/C=C(\C)C(C)=O
T/C [1]: 104 % of control | T/C [2]: 109 % of control | T/C [3]: 109 % of control | T/C [4]: 104 % of control | T/C [5]: 113 % of control | T/C [6]: 118 % of control

CCCC(=O)Oc1ccc2c(C)cc(=O)oc2c1
T/C [2]: 104 % of control | T/C [4]: 90 % of control | T/C [6]: 100 % of control

CN(C)c1ccccc1.[C-]#[O+].[C-]#[O+].[C-]#[O+].[Cr]
T/C [2]: 91 % of control

OC(CN(CCCl)CCCl)C(O)C(O)C(O)CN(CCCl)CCCl (stereo not drawn)
T/C (dose: 0.13 mg/kg/injection, schedule: Q04DX003 (ip), vehicle: saline): 150 % of control | T/C (dose: 0.2 mg/kg/injection, schedule: Q04DX003 (ip), vehicle: saline): 166 % of control | T/C (dose: 0.25 mg/kg/injection, schedule: Q04DX003 (ip), vehicle: saline): 155 % of control | T/C (dose: 0.3 mg/kg/injection, schedule: Q04DX003 (ip), vehicle: saline): 191 % of control | T/C (dose: 0.44 mg/kg/injection, schedule: Q04DX003 (ip), vehicle: saline): 212 % of control | T/C (dose: 0.5 mg/kg/injection, schedule: Q04DX003 (ip), vehicle: saline): 183 % of control | T/C (dose: 0.67 mg/kg/injection, schedule: Q01DX009 (ip), vehicle: saline): 241 % of control | T/C (dose: 1.0 mg/kg/injection, schedule: Q01DX009 (ip), vehicle: saline): 219 % of control | T/C (dose: 1.0 mg/kg/injection, schedule: Q04DX003 (ip), vehicle: saline): 177 % of control and 213 % of control | T/C (dose: 1.5 mg/kg/injection, schedule: Q01DX009 (ip), vehicle: saline): 213 % of control | T/C (dose: 1.5 mg/kg/injection, schedule: Q04DX003 (ip), vehicle: saline): 272 % of control and 177 % of control | T/C (dose: 2.0 mg/kg/injection, schedule: Q04DX003 (ip), vehicle: saline): 281 % of control | T/C (dose: 2.25 mg/kg/injection, schedule: Q04DX003 (ip), vehicle: saline): 245 % of control | T/C (dose: 6.0 mg/kg/injection, schedule: Q04DX003 (ip), vehicle: saline): 86 % of control | T/C (dose: 26.0 micrograms/kg/injection, schedule: Q04DX003 (ip), vehicle: saline): 100 % of control | T/C (dose: 40.0 micrograms/kg/injection, schedule: Q04DX003 (ip), vehicle: saline): 112 % of control | T/C (dose: 60.0 micrograms/kg/injection, schedule: Q04DX003 (ip), vehicle: saline): 120 % of control

CCN(CC)C(=O)c1ccc([N+](=O)[O-])cc1
T/C (dose: 50.0 mg/kg/injection, schedule: Q01DX009 (ip), vehicle: Klucel (hydroxypropylcellulose) (HPC)): 103 % of control | T/C (dose: 50.0 mg/kg/injection, schedule: Q04DX003 (ip), vehicle: Klucel (hydroxypropylcellulose) (HPC)): 95 % of control | T/C [8]: 100 % of control | T/C [10]: 89 % of control | T/C [11]: 104 % of control

O=C(O)c1ccc(NS(=O)(=O)Cc2ccccc2)cc1
T/C [8]: 123 % of control | T/C [10]: 123 % of control | T/C [12]: 123 % of control

Nc1nc([Se])c2ncn(C3OC(CO)C(O)C3O)c2n1 (stereo not drawn)
T/C (dose: 32.0 mg/kg/injection, schedule: Q01DX009 (ip), vehicle: saline): 100 % of control
